Measurements: patent US20260325540A1 (priority 2023, published 2026)

Target: HCoV-229E 3CL protease (Human coronavirus 229E, UniProt P0C6U2)
Assay: FRET based protease assay, HCoV-229E 3CL
Format: biochemical
Settings: 229E IC50, 6 nM H229E-CoV Chis-3CLpro, 6 μM peptide 1 substrate, 25° C., 1.5 hrs, pH 7.5

Sequence of HCoV-229E 3CL protease (P0C6U2 2966-3267): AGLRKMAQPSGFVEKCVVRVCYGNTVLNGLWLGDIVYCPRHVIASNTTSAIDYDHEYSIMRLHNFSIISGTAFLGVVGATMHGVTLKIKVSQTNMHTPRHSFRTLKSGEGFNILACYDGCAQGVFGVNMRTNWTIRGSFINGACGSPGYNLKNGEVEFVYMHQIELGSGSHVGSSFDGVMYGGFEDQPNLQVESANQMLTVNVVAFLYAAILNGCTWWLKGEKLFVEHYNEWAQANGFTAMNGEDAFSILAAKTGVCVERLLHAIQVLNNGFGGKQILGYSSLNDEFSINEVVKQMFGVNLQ

Structure (SMILES) | IC50
CC(C)(C)OC(=O)N[C@H]1CCCC[C@H]2CNC(=O)[C@H]2C[C@@H](C#N)NC(=O)[C@@H]2CC3(CCN2C1=O)CC3 [Example 132] | < 100 nM
CC(C)C[C@@H]1NC(=O)[C@@H](Cc2ccc(F)cc2)CCCC[C@H]2CNC(=O)[C@H]2C[C@@H](C#N)NC1=O [Example 43] | 100 to 1000 nM
CC1(C(=O)N[C@H]2CCCC[C@H]3CNC(=O)[C@H]3C[C@@H](C#N)NC(=O)[C@@H]3[C@@H]4[C@H](CN3C2=O)C4(C)C)CCC1 [Example 118] | < 100 nM
CC1(C)[C@@H]2[C@H]3C(=O)N[C@H](C#N)C[C@@H]4C(=O)NC[C@@H]4/C=C/CC[C@H](NC(=O)C(F)(F)F)C(=O)N3C[C@@H]21 [Example 108] | < 100 nM
CC(C)(C)C(=O)N[C@H]1CCCC[C@H]2CNC(=O)[C@@H]2C[C@@H](C#N)NC(=O)[C@@H]2[C@@H]3[C@H](CN2C1=O)C3(C)C [Example 67] | 100 to 1000 nM
CC(C)(C)OC(=O)N[C@H]1CC/C=C/[C@H]2CNC(=O)[C@H]2C[C@@H](C#N)NC(=O)[C@@H]2[C@H]3CCC[C@H]3CN2C1=O [Example 112] | < 100 nM
CC(C)C[C@@H]1NC(=O)C(OC2CCCCC2)CCC[C@H]2CNC(=O)[C@@H]2C[C@@H](C#N)NC1=O (some centres unmarked) [Example 23] | > 20000 nM
CC(C)(C)OC(=O)N[C@@]1(C)CCCCC[C@H]2CNC(=O)[C@H]2C[C@@H](C#N)NC(=O)[C@@H]2[C@@H]3[C@H](CN2C1=O)C3(C)C [Example 126] | > 20000 nM
Cc1cc(C(=O)N[C@H]2CCCC[C@H]3CNC(=O)[C@H]3C[C@@H](C#N)NC(=O)[C@@H]3[C@@H]4[C@H](CN3C2=O)C4(C)C)on1 [Example 109] | < 100 nM
CC1(C)[C@@H]2[C@H]3C(=O)N[C@H](C#N)C[C@@H]4C(=O)NC[C@@H]4CCCC[C@H](NS(=O)(=O)C4CC4)C(=O)N3C[C@@H]21 [Example 156] | < 100 nM
CC(C)(C)C[C@@H]1NC(=O)[C@@H](NC(=O)C2(C(F)(F)F)CC2)CCCC[C@H]2CNC(=O)[C@H]2C[C@@H](C#N)NC1=O [Example 149] | < 100 nM
CC(C)(C)OC(=O)N[C@H]1CCCC[C@H]2CNC(=O)[C@H]2C[C@@H](C#N)NC(=O)[C@@H]2CC(F)(F)CN2C1=O [Example 131] | 1000 to 20000 nM
CC(C)(C)C(=O)N[C@H]1CCCC[C@H]2CNC(=O)[C@H]2C[C@@H](C#N)NC(=O)[C@@H]2CCCCN2C1=O [Example 71] | 1000 to 20000 nM
CC1(C)[C@@H]2[C@H]3C(=O)N[C@H](C#N)C[C@@H]4C(=O)NC[C@@H]4CCCC[C@H](NC(=O)C4CCCCC4)C(=O)N3C[C@@H]21 [Example 77] | < 100 nM
CC(C)C[C@@H]1NC(=O)[C@@H](NC(=O)C(C)(C)C)CCCC[C@H]2CNC(=O)[C@@H]2C[C@@H](C#N)NC1=O [Example 54] | 1000 to 20000 nM
CC1(C)[C@@H]2[C@H]3C(=O)N[C@H](C#N)C[C@@H]4C(=O)NCC[C@@H]4CCCC[C@H](NC(=O)OC4CCCC4)C(=O)N3C[C@@H]21 [Example 124] | < 100 nM
CC(C)C[C@@H]1NC(=O)[C@@H](NC(=O)C(C)(C)C)CCCC[C@H]2CNC(=O)[C@H]2C[C@@H](C#N)NC1=O [Example 44] | < 100 nM
CC(C)C[C@@H]1NC(=O)[C@@H](OC(C)(C)C)CCC[C@H]2CNC(=O)[C@@H]2C[C@@H](C=O)NC1=O [Example 20] | 1000 to 20000 nM
CC(C)C[C@@H]1NC(=O)[C@@H](Cc2ccccc2)CCC[C@H]2CNC(=O)[C@@H]2C[C@@H](C=O)NC1=O [Example 17] | 100 to 1000 nM

Structure (SMILES) | IC50
CC(C)(C)OC(=O)N[C@H]1CC/C=C/[C@H]2CNC(=O)[C@H]2C[C@@H](C#N)NC(=O)[C@@H]2[C@@H]3[C@H](CN2C1=O)C3(C)C [Example 92] | < 100 nM
CC1(C)[C@@H]2[C@H]3C(=O)N[C@H](C#N)C[C@@H]4C(=O)NC[C@@H]4CCCC[C@H](NC(=O)C4CC5(CCC5)C4)C(=O)N3C[C@@H]21 (some centres unmarked) [Example 81] | < 100 nM
CC1(C(=O)N[C@H]2CCCC[C@H]3CNC(=O)[C@H]3C[C@@H](C#N)NC(=O)[C@@H]3[C@@H]4[C@H](CN3C2=O)C4(C)C)COC1 [Example 123] | < 100 nM
CC1(C)[C@@H]2[C@H]3C(=O)N[C@H](C#N)C[C@@H]4C(=O)NC[C@@H]4CCCC[C@H](NC(=O)c4ccc(F)cc4)C(=O)N3C[C@@H]21 [Example 82] | < 100 nM
CC(C)(C)OC(=O)N[C@H]1CC/C=C\[C@H]2CCNC(=O)[C@H]2C[C@@H](C#N)NC(=O)[C@@H]2[C@@H]3[C@H](CN2C1=O)C3(C)C [Example 114] | < 100 nM
N#C[C@@H]1C[C@H]2C(=O)NC[C@@H]2CCCCC(=O)N2C[C@@H]3CCC[C@@H]3[C@H]2C(=O)N1 [Example 26] | 1000 to 20000 nM
CC(C)C[C@@H]1NC(=O)CCCC[C@H]2CNC(=O)[C@@H]2C[C@@H](C#N)NC1=O [Example 24] | 100 to 1000 nM
CC1(C)[C@@H]2[C@H]3C(=O)N[C@H](C#N)C[C@@H]4C(=O)NC[C@@H]4CCCC[C@H](NS(=O)(=O)C4CCC4)C(=O)N3C[C@@H]21 [Example 160] | < 100 nM
CC1(C)[C@@H]2[C@H]3C(=O)N[C@H](C#N)C[C@@H]4C(=O)NCC[C@@H]4CCCC[C@H](NC(=O)C45CC(C(F)(F)F)(C4)C5)C(=O)N3C[C@@H]21 [Example 135] | 100 to 1000 nM
CC(C)C[C@@H]1NC(=O)[C@@H](Cc2ccccc2)CCCC[C@@H]2CNC(=O)[C@@H]2C[C@@H](C=O)NC1=O [Example 35] | 1000 to 20000 nM
CCO[C@@H]1C[C@H]2C(=O)N[C@H](C#N)C[C@@H]3C(=O)NC[C@@H]3CCCC[C@H](NC(=O)OC(C)(C)C)C(=O)N2C1 [Example 144] | 100 to 1000 nM
CC1(C)[C@@H]2[C@H]3C(=O)N[C@H](C#N)C[C@@H]4C(=O)NC[C@@H]4CCCC[C@H](NC(=O)c4ccc(Cl)c(Cl)c4)C(=O)N3C[C@@H]21 [Example 120] | < 100 nM
CC(C)(C)OC(=O)N[C@H]1CCCC[C@H]2CCNC(=O)C2C[C@@H](C#N)NC(=O)[C@@H]2[C@H]3CCC[C@H]3CN2C1=O (some centres unmarked) [Example 98] | < 100 nM
CC(C)C[C@@H]1NC(=O)[C@@H](OC(C)(C)C)CCC[C@H]2CNC(=O)[C@@H]2C[C@@H](C#N)NC1=O [Example 29] | > 20000 nM
CC(C)(C)COC(=O)N[C@H]1CCCC[C@H]2CNC(=O)[C@H]2C[C@@H](C#N)NC(=O)[C@@H]2[C@@H]3[C@H](CN2C1=O)C3(C)C [Example 106] | < 100 nM
CC(C)C[C@@H]1NC(=O)[C@@H](Cc2ccccc2)CCCC[C@H]2CNC(=O)[C@H]2C[C@@H](C#N)NC1=O [Example 39] | 100 to 1000 nM
CC(C)C[C@@H]1NC(=O)[C@@H](Cc2ccccc2)CCCC[C@H]2CNC(=O)[C@@H]2C[C@@H](C=O)NC1=O [Example 37] | < 100 nM
CC(C)C[C@@H]1NC(=O)[C@@H](N(C)C(=O)OC(C)(C)C)CCC[C@H]2CNC(=O)[C@@H]2C[C@@H](C#N)NC1=O [Example 22] | 1000 to 20000 nM
CCC(C)(C)[C@@H]1NC(=O)[C@@H](NC(=O)OC(C)(C)C)CCCC[C@H]2CNC(=O)[C@H]2C[C@@H](C#N)NC1=O [Example 145] | 1000 to 20000 nM
